Experimental data from PMC9268414, “Screening an In-House Isoquinoline Alkaloids Library for New Blockers of Voltage-Gated Na^+ Channels Using Voltage Sensor Fluorescent Probes: Hits and Biases” (Molecules, 2022).
Where two headings read alike, the source gives them in different places.

Experiments:
[1] = test system: NaV channels endogenously expressed in GH3b6 cells; test: FRET voltage sensor probe (VSP) assay of BTX-induced depolarization in GH3b6 cells; format: cell-based, rat; settings: GH3b6 cells; for Maximum of Inhibition of BTX-evoked VSP signal / IC50: BTX 1 µM, n = 6; for Maximum of Inhibition of BTX-evoked VSP signal: % printed only; for IC50: read-out: IC50 (µM), inhibition of BTX-evoked VSP signal; for Inhibitory Effects (%) on BTX-induced VSP signal (screening): IA at 10–50 µg/mL co-incubated with 1 µM BTX
hNaV1.3 channel = target: T1, hNaV1.3 channel (Homo sapiens, UniProt Q9NY46); test: Automated patch-clamp, Na+ currents in HEK293-hNaV1.3 cells; format: cell-based; settings: for Effect on slow-down of inactivation induced by BTX (AUC): 10 µM IA; for Effect on slow-down of inactivation induced by BTX (AUC) / Change in V1/2 of activation and inactivation vs control: hNaV1.3; for Effect on Na+ currents elicited by hNaV1.3 / Change in V1/2 of activation and inactivation vs control: 10 µM; for Effect on Na+ currents elicited by hNaV1.3: HEK293-hNaV1.3, without BTX
T1 construct: expressed in transfected cells
Method: (§1) GH3b6 cells are a subclone of the GH3 pituitary cell line and were a generous gift from Dr. Françoise Macari (IGF, Montpellier, France). GH3b6 cells were cultivated from passage 14 until passage 32 at 37 °C/5% CO2 in Dubelcco’s Modified Eagle Medium (DMEM)/F12 (Lonza, Basel, Switzerland), supplemented with 10% FBS (Lonza, Basel, Switzerland), 1 mM L-glutamine, and 1 mM penicillin and streptomycin solution. For the fluorescence assay, the GH3b6 cells were seeded in black-walled, clear-bottom, 96-well, tissue culture-treated, and sterile imaging plates (Corning Hazebrouck, France), at a density of 10,000 cells per well, and incubated for 24 h before starting the experiment. The human Nav1.3 (hNav1.3) channel-expressing cell line (HEK293) used in this work was a generous gift from Massimo Mantegazza (IPMC, Nice, France). HEK293-hNaV1.3 cells were cultivated from passage 20 until passage 35 at 37 °C/5% CO2 in a DMEM high glucose medium (4.5 g/l), supplemented with 10% FBS, pyruvate, L-glutamine, and penicillin and streptomycin solution, each one at 1 mM, completed with 800 µg/mL geneticin G418. For the fluorescence assays, the cells were plated at a density of 50,000 cells per well in black-walled, clear-bottom, 96-well plates and then cultured at 37 °C and 5% CO2 for 24 h before the experiments. HEK293 stably expressing hNaV1.2 and hNaV1.6 were cultivated in the same conditions mentioned above for the HEK293-hNaV1.3 cells. For the automated patch-clamp experiments, cells were passaged from 24 to 48 h prior to the experiment and replated in the appropriate quantity to reach 50–70% confluence. For electrophysiological recordings, cells were detached with trypsin-EDTA and diluted in a culture medium. Then, the cells were centrifuged at 800 rpm for 4 min and resuspended (~300,000 cells/mL) in a patch-clamp extracellular solution.
(§2) Whole-cell recordings were used to investigate the effects of oxostephanine, liriodenine, thalmiculine, bebeerine, and protopine on HEK293 cells stably expressing the hNav1.2, hNav1.3, and hNav1.6 channels. Automated patch-clamp recordings were performed using the SyncroPatch 384PE from Nanion (München, Germany). Chips with a single hole (n = 384, series resistance 3.93 ± 1.19 MΩ) were used for HEK293 cell recordings. Pulse generation and data collection were performed with the PatchControl384 v1.9.7 software (Nanion) and the Biomek interface (Beckman Coulter). Whole-cell recordings were conducted according to the recommended procedures of Nanion. The cells were stored in a cell hotel reservoir at 10 °C, with a shaking speed of 60 RPM. After initiating the experiment, cell catch, sealing, whole-cell formation, liquid application, recording, and data acquisition were all performed sequentially and automatically. The intracellular solution contained (in mM): 10 CsCl, 110 CsF, 10 NaCl, 10 EGTA, and 10 HEPES (pH 7.2, osmolarity 280 mOsm), and the extracellular solution contained (in mM): 60 NMDG, 80 NaCl, 4 KCl, 2 CaCl2, 1 MgCl2, 5 Glucose, and 10 HEPES (pH 7.4 (NaOH), osmolarity 280 ± 3 mOsm). Whole-cell experiments were performed at a holding potential of −100 mV at room temperature (18–22 °C). Currents were sampled at 20 kHz. For pharmacological assays, alkaloid solutions were prepared at 30 µM in the extracellular solution supplemented with 0.3% bovine serum albumin and distributed in 384-well compound plates according to a pre-established plate plan. This distribution within compound plates could not be randomized since it would then excessively complexify the methods of analyses. The working compound solution was diluted 3 times in the patch-clamp recording well by adding from 30 to 60 µL of the external solution to reach the final reported concentration and the test volume of 90 µL. The effects of IA (10 µM) or of BTX (1 µM) were measured at the end of a 10 min application time. Activation curves were built by depolarizations lasting for 2000 ms, from −130 mV to 40 mV, using 5 mV increment steps. […]

human NaV1.3 channel = human NaV1.3 channel (Homo sapiens, UniProt Q9NY46); test: ANG-2 intracellular Na+ fluorescent assay in HEK293-hNaV1.3 cells; format: cell-based; settings: IA at 10 µM; BTX 3 µM; HEK293-hNaV1.3; read-out: Inhibition of BTX-induced [Na+]i elevation (ANG-2 signal)
hNaV1.2 channel = target: T2, hNaV1.2 channel (Homo sapiens, UniProt Q99250); test: Automated patch-clamp, Na+ currents in HEK293-hNaV1.2 cells; format: cell-based; settings: 10 µM; for Effect on Na+ currents elicited by hNaV1.2: HEK293-hNaV1.2; for Change in V1/2 of activation and inactivation vs control: hNaV1.2
T2 construct: expressed in transfected cells
Method: as §1, §2

hNaV1.6 channel = target: T3, hNaV1.6 channel (Homo sapiens, UniProt Q9UQD0); test: Automated patch-clamp, Na+ currents in HEK293-hNaV1.6 cells; format: cell-based; settings: 10 µM; for Effect on Na+ currents elicited by hNaV1.6: HEK293-hNaV1.6; for Change in V1/2 of activation and inactivation vs control: hNaV1.6
T3 construct: expressed in transfected cells
Method: as §1, §2

[2] = test system: Na+ currents recorded in isolated cardiomyocytes; settings: cited from earlier work
[3] = 10 µM IA in the presence of 1 µM BTX

T3 sequence (Q9UQD0 whole entry): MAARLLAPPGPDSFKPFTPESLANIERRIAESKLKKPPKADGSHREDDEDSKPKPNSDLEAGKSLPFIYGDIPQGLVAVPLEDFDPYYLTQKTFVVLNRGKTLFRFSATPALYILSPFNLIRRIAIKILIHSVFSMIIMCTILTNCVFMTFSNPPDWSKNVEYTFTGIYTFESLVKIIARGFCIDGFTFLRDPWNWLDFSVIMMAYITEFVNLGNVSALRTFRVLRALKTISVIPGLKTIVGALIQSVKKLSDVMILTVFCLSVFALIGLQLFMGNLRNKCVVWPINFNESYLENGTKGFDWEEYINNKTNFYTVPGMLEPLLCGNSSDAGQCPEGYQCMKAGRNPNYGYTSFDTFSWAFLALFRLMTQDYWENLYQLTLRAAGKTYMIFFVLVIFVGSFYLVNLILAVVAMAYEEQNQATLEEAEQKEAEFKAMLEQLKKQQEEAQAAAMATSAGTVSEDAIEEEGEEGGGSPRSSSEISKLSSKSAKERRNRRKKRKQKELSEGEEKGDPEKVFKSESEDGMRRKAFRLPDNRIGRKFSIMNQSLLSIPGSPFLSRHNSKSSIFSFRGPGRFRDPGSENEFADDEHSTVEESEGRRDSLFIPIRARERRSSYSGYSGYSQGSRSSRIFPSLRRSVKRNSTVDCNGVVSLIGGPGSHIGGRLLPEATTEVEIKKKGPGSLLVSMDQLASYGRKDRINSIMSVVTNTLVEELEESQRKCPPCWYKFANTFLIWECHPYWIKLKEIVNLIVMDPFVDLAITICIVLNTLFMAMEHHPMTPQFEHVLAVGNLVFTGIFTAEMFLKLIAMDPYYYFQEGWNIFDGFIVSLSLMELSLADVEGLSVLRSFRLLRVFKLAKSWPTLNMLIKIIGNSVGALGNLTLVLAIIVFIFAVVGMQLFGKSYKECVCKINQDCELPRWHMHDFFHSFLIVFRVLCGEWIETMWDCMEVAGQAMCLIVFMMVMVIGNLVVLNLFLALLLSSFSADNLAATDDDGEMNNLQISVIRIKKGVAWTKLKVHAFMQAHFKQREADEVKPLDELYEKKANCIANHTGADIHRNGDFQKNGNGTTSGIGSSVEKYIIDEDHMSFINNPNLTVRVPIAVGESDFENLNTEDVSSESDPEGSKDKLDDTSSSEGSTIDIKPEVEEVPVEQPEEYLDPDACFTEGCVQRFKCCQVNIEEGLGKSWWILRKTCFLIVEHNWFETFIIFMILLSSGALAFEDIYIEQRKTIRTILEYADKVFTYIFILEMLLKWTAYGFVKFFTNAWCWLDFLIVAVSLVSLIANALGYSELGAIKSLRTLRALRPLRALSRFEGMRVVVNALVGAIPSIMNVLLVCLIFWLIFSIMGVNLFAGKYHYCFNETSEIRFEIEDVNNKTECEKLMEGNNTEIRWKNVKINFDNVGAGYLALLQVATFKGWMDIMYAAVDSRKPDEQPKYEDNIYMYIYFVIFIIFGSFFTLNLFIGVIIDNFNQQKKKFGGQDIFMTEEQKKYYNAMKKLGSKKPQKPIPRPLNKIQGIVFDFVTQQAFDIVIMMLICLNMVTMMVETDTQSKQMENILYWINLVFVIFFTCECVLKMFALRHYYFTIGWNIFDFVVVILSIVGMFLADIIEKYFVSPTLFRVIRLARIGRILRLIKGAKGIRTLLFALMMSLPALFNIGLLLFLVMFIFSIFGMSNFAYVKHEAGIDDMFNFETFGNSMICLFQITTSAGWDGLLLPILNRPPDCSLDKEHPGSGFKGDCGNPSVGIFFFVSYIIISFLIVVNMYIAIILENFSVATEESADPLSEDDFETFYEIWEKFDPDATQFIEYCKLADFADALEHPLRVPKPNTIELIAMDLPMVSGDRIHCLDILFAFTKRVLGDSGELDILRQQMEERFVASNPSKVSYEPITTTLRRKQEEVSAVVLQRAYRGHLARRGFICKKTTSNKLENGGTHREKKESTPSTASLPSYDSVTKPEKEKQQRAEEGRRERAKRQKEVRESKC
T1 sequence (Q9NY46 whole entry): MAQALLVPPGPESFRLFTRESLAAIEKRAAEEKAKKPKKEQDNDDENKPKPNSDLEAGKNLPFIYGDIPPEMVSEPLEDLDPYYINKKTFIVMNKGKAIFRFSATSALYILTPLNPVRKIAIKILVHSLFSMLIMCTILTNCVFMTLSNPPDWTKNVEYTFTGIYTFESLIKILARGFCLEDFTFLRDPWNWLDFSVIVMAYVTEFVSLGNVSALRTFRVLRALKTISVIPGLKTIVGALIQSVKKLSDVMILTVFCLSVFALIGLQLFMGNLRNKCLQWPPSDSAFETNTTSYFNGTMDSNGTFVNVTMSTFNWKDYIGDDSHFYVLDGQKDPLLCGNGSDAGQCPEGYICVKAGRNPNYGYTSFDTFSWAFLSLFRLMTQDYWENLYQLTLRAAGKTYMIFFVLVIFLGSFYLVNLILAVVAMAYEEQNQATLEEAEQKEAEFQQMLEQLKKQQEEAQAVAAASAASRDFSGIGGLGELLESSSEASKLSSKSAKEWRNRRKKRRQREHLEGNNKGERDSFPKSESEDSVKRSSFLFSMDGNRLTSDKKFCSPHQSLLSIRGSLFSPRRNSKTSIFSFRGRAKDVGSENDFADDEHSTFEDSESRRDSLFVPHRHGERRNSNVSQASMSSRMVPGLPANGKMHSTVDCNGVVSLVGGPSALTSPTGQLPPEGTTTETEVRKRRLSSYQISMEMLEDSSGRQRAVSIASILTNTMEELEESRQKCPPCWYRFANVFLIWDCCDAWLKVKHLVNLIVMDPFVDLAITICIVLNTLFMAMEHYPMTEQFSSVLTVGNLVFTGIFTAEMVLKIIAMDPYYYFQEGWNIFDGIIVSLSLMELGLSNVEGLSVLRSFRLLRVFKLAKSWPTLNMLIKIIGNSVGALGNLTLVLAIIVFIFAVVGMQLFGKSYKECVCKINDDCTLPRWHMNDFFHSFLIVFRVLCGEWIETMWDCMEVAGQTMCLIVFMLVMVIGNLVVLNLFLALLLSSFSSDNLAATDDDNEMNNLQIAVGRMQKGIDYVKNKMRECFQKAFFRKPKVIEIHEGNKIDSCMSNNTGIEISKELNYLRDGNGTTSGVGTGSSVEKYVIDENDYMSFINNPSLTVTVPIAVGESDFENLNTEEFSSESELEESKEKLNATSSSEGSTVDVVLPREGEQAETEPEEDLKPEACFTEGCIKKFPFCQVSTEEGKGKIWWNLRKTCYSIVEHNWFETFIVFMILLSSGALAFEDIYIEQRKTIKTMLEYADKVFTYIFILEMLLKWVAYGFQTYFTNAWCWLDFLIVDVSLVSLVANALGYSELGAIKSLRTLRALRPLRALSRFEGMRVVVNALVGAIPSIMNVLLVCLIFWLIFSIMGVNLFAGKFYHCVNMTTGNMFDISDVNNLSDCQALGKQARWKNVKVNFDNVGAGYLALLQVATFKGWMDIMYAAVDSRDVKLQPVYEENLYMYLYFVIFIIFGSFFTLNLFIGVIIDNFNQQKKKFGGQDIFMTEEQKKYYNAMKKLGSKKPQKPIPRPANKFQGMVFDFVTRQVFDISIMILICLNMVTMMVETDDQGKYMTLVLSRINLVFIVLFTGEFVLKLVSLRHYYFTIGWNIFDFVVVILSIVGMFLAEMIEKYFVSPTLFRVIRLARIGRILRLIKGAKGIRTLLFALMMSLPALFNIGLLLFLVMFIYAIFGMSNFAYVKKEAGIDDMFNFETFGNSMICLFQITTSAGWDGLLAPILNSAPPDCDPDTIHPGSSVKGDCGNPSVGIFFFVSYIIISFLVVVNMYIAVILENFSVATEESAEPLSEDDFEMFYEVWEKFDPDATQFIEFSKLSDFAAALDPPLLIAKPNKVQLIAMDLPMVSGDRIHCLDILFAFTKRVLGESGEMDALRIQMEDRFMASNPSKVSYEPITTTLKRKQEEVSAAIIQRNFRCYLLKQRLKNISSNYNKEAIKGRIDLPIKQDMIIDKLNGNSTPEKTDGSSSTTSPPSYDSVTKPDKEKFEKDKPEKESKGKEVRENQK
Sequence of human NaV1.3 channel (Q9NY46 whole entry): as above

Row | Structure (SMILES) | Maximum of Inhibition of BTX-evoked VSP signal [1] | IC50 [1] | Inhibitory Effects (%) on BTX-induced VSP signal (screening) [1] | inhibition at 10 µM (human NaV1.3 channel) | Effect on Na+ currents elicited by hNaV1.2 (hNaV1.2 channel) | Change in V1/2 of activation and inactivation vs control (hNaV1.2 channel) | Effect on current densities of hNaV1.3 at −60 mV (hNaV1.3 channel; [3]) | Effect on slow-down of inactivation induced by BTX (AUC) (hNaV1.3 channel; BTX 1 µM) | Effect on Na+ currents elicited by hNaV1.3 (hNaV1.3 channel) | Change in V1/2 of activation and inactivation vs control (hNaV1.3 channel) | Effect on Na+ currents elicited by hNaV1.6 (hNaV1.6 channel) | Change in V1/2 of activation and inactivation vs control (hNaV1.6 channel) | further results
1 | Cc1c[nH]c(C)c1C(=O)OC(C)C1=CCC23OCCN(C)CC12CC(O)C12OC4(O)CCC1(C)C(CC=C32)C4 (stereo not drawn) [BTX, batrachotoxin, reference compound] | – | – | – | – | – | – | – | – | – | – | – | – | EC50 of BTX-induced VSP signal ratio ([1]; BTX 0.01 to 3 µM, Na+ raised to 80 mM): 0.27 ± 0.06 µM; Increase of the AUC of current traces (inactivation rate of hNaV1.3) (hNaV1.3 channel; BTX 1 µM, data not shown): 55 fold
2 | COc1cccc2c1C(=O)c1nccc3cc4c(c-2c13)OCO4 [IA14, oxostephanine] | 95.78 ± 6.99% | 6.11 ± 0.09 µM | 84.4% | 43 ± 12% | no effects | ns | significantly decreased | significantly decreased | no effects | ns | no effects | ns | IC50 ([1]; listed as Oxostephanine): 5 to 6 µM; Inhibitory Effects (%) on BTX-induced VSP signal (screening) ([1]; listed as IA24): 80.5%
3 | COc1ccc2cc1-c1cc(ccc1O)C[C@H]1c3cc4c(cc3CCN1C)Oc1c(OC)cc3c(c1O4)[C@H](C2)N(C)CC3 [IA31, tiliacorinine] | – | – | 92.8% | – | – | – | – | – | – | – | – | – | –
4 | COc1ccc2c(c1OC)C(O)C1c3c(cc4c(c3-2)OCO4)CCN1C (stereo not drawn) [IA36, sukhodianine] | – | – | 92.2% | – | – | – | – | – | – | – | – | – | –
5 | O=C1c2ccccc2-c2c3c(cc4ccnc1c24)OCO3 [IA39, liriodenine] | 83.78 ± 6.59% | 5 ± 0.1 µM | 99.1% | 50 ± 10% | no effects | ns | significantly decreased | significantly decreased | no effects | ns | no effects | ns | IC50 ([1]; listed as liriodenine): 5 to 6 µM; Effect on V1/2 activation of hNaV1.3 (hNaV1.3 channel; [3]): positively shifted; IC50, suppression of Na+ currents in isolated cardiomyocytes [2]: micromolar range
